ChEMBL document CHEMBL5465560, “Selectivity Literature for EUbOPEN Chemogenomic Library” (2024)

How the values were obtained:
[1] = target: T1, Discoidin domain-containing receptor 2 (Homo sapiens) (UniProt Q16832); assay: Selectivity interaction (KinomeScan (DiscoverX)) EUB0000229b DDR2; settings: at 10 µM
T1 sequence (whole entry): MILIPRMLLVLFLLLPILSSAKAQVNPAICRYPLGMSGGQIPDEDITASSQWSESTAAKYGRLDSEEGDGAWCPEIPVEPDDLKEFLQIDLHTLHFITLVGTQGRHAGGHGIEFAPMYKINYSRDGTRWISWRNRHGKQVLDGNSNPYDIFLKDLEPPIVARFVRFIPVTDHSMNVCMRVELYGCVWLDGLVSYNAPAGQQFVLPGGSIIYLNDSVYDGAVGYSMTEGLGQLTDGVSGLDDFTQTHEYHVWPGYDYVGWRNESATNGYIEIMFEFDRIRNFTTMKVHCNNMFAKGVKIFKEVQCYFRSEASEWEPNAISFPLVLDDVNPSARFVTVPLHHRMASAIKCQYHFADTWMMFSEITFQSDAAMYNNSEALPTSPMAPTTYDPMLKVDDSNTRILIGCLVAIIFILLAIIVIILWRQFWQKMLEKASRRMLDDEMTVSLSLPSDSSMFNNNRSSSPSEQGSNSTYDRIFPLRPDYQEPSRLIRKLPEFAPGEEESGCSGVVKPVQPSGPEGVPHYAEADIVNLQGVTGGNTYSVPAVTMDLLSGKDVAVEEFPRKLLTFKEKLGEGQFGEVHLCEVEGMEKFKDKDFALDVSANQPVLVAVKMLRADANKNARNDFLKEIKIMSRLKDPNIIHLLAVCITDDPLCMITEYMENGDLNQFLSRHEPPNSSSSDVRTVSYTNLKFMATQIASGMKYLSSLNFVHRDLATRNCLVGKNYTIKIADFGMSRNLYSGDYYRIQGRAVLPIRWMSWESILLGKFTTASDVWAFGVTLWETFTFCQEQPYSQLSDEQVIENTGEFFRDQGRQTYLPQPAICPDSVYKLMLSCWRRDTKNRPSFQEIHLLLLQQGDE

[2] = target: T2, MAP/microtubule affinity-regulating kinase 4 (Homo sapiens) (UniProt Q96L34); assay: Selectivity interaction (ProQinase) EUB0000171b MARK4
T2 sequence (whole entry): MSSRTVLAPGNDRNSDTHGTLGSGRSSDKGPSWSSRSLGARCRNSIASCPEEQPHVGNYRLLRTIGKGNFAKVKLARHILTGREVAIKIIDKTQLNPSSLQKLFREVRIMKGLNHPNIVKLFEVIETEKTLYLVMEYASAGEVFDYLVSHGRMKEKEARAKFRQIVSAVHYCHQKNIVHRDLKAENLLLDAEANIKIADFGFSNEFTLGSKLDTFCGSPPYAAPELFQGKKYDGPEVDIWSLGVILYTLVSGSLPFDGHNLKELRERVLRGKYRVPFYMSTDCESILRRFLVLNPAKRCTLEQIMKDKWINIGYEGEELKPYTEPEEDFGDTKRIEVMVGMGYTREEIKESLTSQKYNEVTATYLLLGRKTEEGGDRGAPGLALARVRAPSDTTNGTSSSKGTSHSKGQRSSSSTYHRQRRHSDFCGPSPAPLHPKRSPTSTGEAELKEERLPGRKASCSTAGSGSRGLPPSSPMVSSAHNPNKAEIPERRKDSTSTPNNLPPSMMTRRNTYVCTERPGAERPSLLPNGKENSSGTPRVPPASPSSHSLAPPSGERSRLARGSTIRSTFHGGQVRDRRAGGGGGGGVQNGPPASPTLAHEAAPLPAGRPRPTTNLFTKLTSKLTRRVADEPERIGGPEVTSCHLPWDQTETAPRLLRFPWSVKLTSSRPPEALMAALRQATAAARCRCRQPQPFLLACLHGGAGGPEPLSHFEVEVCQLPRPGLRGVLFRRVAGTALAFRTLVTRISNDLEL

[3] = target: T3, Serine/threonine-protein kinase RIO1 (Homo sapiens) (UniProt Q9BRS2); assay: Selectivity interaction (Kinase panel (DSF assay)) EUB0001559a RIOK1
T3 sequence (whole entry): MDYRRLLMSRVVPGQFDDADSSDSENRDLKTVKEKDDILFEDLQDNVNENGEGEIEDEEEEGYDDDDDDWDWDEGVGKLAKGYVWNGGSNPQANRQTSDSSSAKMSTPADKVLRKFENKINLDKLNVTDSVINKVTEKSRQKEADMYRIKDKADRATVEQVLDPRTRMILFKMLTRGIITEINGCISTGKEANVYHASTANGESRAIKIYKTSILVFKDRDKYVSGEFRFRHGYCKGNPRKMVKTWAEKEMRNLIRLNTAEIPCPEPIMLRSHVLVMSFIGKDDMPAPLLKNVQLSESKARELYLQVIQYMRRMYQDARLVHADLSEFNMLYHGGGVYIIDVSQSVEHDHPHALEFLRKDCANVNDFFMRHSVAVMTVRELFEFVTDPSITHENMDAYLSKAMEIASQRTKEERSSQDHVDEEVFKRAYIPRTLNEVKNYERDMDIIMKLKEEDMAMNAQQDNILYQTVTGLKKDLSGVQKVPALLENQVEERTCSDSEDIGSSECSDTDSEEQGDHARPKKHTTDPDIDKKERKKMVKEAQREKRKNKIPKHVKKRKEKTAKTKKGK

[4] = target: Phosphatidylinositol 4-phosphate 3-kinase C2 domain-containing subunit beta (Homo sapiens) (UniProt O00750); assay: Selectivity interaction (KinomeScan (DiscoverX)) EUB0000045b PIK3C2B
Sequence of Phosphatidylinositol 4-phosphate 3-kinase C2 domain-containing subunit beta (Homo sapiens) (O00750 whole entry, the tested form may be a part): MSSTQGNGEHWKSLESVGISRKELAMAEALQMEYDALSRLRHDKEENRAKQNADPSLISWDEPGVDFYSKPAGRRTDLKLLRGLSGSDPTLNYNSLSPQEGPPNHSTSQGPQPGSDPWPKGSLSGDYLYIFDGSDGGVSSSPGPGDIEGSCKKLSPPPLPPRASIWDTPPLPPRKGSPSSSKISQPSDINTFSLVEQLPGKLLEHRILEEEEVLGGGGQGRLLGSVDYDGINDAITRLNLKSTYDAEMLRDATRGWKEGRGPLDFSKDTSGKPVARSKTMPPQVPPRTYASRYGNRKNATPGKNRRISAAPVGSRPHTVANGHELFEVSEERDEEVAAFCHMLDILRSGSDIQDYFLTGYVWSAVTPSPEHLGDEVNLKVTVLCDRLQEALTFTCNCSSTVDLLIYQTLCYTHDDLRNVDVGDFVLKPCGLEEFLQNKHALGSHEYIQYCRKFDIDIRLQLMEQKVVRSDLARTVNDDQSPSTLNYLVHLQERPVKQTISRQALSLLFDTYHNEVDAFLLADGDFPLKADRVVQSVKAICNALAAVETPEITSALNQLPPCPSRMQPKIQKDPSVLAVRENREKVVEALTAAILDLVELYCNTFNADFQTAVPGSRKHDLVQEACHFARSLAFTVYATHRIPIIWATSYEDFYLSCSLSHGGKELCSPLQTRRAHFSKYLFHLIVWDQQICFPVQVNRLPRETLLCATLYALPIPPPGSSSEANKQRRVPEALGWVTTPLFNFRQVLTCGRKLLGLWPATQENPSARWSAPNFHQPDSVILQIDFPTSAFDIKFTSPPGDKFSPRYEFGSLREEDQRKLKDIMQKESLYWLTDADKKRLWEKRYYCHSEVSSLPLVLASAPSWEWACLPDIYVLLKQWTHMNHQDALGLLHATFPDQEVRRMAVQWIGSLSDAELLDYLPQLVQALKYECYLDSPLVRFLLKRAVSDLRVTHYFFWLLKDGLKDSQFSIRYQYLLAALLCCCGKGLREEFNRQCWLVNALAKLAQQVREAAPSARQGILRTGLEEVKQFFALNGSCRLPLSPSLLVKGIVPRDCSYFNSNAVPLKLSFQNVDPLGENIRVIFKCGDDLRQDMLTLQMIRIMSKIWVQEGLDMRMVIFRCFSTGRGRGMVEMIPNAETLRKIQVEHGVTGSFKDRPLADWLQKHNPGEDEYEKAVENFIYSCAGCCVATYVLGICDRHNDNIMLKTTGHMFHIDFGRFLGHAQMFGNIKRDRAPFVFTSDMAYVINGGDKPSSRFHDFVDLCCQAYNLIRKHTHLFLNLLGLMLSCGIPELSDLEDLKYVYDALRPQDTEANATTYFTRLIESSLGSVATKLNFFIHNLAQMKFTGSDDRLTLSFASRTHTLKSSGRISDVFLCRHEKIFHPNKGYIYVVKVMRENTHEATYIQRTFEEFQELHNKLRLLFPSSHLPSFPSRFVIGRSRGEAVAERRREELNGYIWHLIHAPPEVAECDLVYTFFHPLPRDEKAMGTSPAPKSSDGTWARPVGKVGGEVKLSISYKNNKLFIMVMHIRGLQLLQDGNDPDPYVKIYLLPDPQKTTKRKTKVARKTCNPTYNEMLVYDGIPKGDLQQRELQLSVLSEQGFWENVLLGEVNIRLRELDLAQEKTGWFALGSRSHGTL

## COc1cc(N(C)c2ccnc3ccc(C(F)(F)F)cc23)cc(OC)c1OC
[1]
  % binding: 93%

## C=CC(=O)Nc1cccc(C(=O)Nc2ccc(Nc3cc(-c4[nH]c(SC)nc4C)ccn3)cc2)c1
[2]; at 1 µM
  % of control: 92%
[2]; at 5 µM
  % of control: 99%

## CN(C(=O)c1cnn2cccnc12)c1cc2c(cc1N1CCOCC1)C(=O)N(C[C@@H](F)C(C)(C)O)C2
[3]
  dTM: -0.2 K

## C=CC(=O)Nc1cc(-n2c(=O)ccc3cnc4ccc(-c5ccc(NS(C)(=O)=O)cc5)cc4c32)ccc1C
[4]; at 1 µM
  % of control: 100%
[4]; at 10 µM
  % of control: 40%
